Laboratory results reported in patent publication US10041937B2, “Macrophage identification agent, and identification method, sorting method, evaluation method, screening method and kit using the macrophage identifier agent” (CANON KABUSHIKI KAISHA, priority 2013, dated 2018).

What was measured:
[1] = tested on: mixture of the M1 macrophages and the M2 macrophages; assay: Sorting of subtypes from a mixture of M1 and M2 macrophages with an FACS apparatus; type: cell-based, mouse; conditions: compound 1 μM
[2] = tested on: M1 macrophages and M2 macrophages differentiated from RAW264.7 cells; assay: Identification of macrophage subtypes differentiated from mouse cell line RAW264.7; type: cell-based; conditions: RAW264.7 derived M1 and M2
Experimental: The subtypes were identified by using the compound (1) in the same manner as in Example 1 except that the macrophage subtypes differentiated from the mouse bone marrow cells were changed to macrophage subtypes differentiated from a cell line established from mouse monocytic leukemia.
The culture of subtypes was performed with reference to NPL 9. Specifically, RAW264.7 cells purchased from American Type Culture Collection, that is, a cell line established from mouse monocytic leukemia, were subcultured several times, and the resultant cells were dispersed to a concentration of 3.3×10^4/mL in a D-MEM containing 10% FBS, 1% P/S and 1% MEM-NEAA, and 3.3×10^5 cells were seeded in a 100 mm dish. The cells were grown by incubation performed in the presence of 5% CO2 at 37° C. After 2 to 4 days, it was confirmed that an area of about to 70% of the bottom of the dish had been covered by the cells, the medium was then exchanged, and by adding 200 ng of interferon-γ and 1 μg of polyliposaccharide (both manufactured by Pepro Tech) to the medium, the cells were differentiated to the subtype M1. Besides, by adding 100 ng of IL-4, the cells were differentiated to the subtype M2. […]
A histogram was prepared by plotting fluorescence intensity obtained in the FITC channel on the abscissa and plotting the number of cells at each fluorescence intensity on the ordinate, which is shown in FIG. 9.

[3] = tested on: M1 macrophages and M2 macrophages differentiated from THP-1 cells; assay: Identification of macrophage subtypes differentiated from human cell line THP-1; type: cell-based
Experimental: The fluorescent signals derived from the compounds (3), (4), (6), (7), (9), (11) to (13), (15), (17), (19) to (26), (28), (30) to (33), (35), (36), (38), (42) to (45), (48) to (62), (65), (67), (74) to (76), (82), (83) and (85) and the comparative compounds (1) and (2) were measured in channels suitable to the respective compounds. Histograms were prepared by plotting fluorescence intensities obtained in the respective channels on the abscissa and plotting the numbers of cells at each fluorescence intensity on the ordinate. A difference between a fluorescence intensity (FM1) at a peak top of the histogram of the M1 macrophage and a fluorescence intensity (FM2) at a peak top of the histogram of the M2 macrophage is divided by a sum of a peak width (WM1) of the histogram of the M1 macrophage and a peak width (WM2) of the histogram of the M2 macrophage, so as to obtain a resolution R, which was used as an index of the identification ability for a subtype (see the following expression (1)). Resolution R=|FM1−FM2|/(WM1+WM2) Expression (1)
Based on the thus obtained values of the resolution R, the identification abilities for the subtypes of the compounds (3), (4), (6), (7), (9), (11) to (13), (15), (17), (19) to (26), (28), (30) to (33), (35), (36), (38), (42) to (45), (48) to (62), (65), (67), (74) to (76), (82), (83) and (85) and the comparative compounds (1) and (2) were evaluated as any of A to C according to the following criteria, and if the resolution R was 0.15 or more, the compound was determined to be good in the subtype identification.
The subtypes were identified by using the compound (1) in the same manner as in Example 1 except that the macrophage subtypes differentiated from the mouse bone marrow cells were changed to macrophage subtypes differentiated from a cell line established from human acute monocytic leukemia.
The culture of subtypes was performed with reference to NPL 10. Specifically, THP-1 cells purchased from JCRB Cell Bank of National Institute of Biomedical Innovation, that is, a cell line established from human acute monocytic leukemia, were subcultured several times, and the resultant cells were dispersed to a concentration of 5.0×10^5/mL in an RPMI1640 containing 10% FBS and 1% P/S, and 5.0×10^6 cells were seeded in a 100 mm dish. The monocytes were differentiated into macrophages by incubating the resultant in the presence of 5% CO2 at 37° C. for 2 days with 500 ng of PMA added thereto. After exchanging the medium, by adding 200 ng of interferon-γ and 1 μg of polyliposaccharide (both manufactured by Pepro Tech) to the medium, the cells were differentiated to the subtype M1. Besides, by adding 200 ng of IL-4 and IL-13, the cells were differentiated to the subtype M2. After incubation performed in the presence of 5% CO2 at 37° C. for 24 hours, the resultant was rinsed with PBS, and PBS containing 0.25% trypsin and 1 mM EDTA (ethylenediaminetetraacetic acid) was used for collecting, from the dish, the macrophages having been differentiated to the subtypes M1 and M2.
Specifically, fluorescent signals derived from the compounds (1) (3) (4) (12) and (15) were measured by using the channels which are appropriate for each of the compounds and the identification abilities for the subtypes of the compounds were evaluated based on the values of the resolution R.

CCOC(=O)CCN1C(=O)/C(=C\c2ccc3c(c2)C2CCCC2N3CC)SC1=S (centres unmarked) [compound (1)]
sorting of identified M1 and M2 macrophages ([1]; FACS apparatus): could be each sorted with an FACS apparatus | subtype more strongly stained ([1]; mixed M1 and M2 macrophages): stain the M1 macrophages more strongly than the M2 macrophages | subtype more strongly stained [2]: the M1 macrophages were stained more strongly than the M2 macrophages | Resolution ratio R ([3]; M1 vs M2 macrophages differentiated from THP-1 cells, channel listed per compound (Table 6)): 0.409 | Evaluation of macrophage subtype identification ([3]; M1 vs M2 macrophages differentiated from THP-1 cells, class based on resolution R (Table 6)): B (the compound is good in the subtype identification (namely, the resolution R is 0.15 or more and less than 0.5)) | Peak position of M1 macrophage ([3]; THP-1-derived M1 macrophages, fluorescence intensity peak by flow cytometry in the channel listed per compound (Table 6)): 58.1 | Peak position of M2 macrophage ([3]; THP-1-derived M2 macrophages, fluorescence intensity peak by flow cytometry in the channel listed per compound (Table 6)): 33.4 | Selectivity ([3]; subtype strongly stained, THP-1-derived macrophages (Table 6)): M1
